Experimental data published in patent publication US20250255945A1, “CLICK CHEMISTRY HLA POLYPEPTIDES” (IMMUNEO Therapeutics GmbH, priority 2024, published 2025).

tested on: peripheral blood mononuclear cells (PBMCs); assay: IFN-γ ELISPOT assay (ex vivo) with subject PBMCs; format: cell-based, human; conditions: Example 3 subject PBMCs; compared to the HTAPP without DACP
Experimental: IFNγ ELISpot analysis (for protocol see A. Lalvani, R. Brookes, S. Hambleton, W. J. Britton, A. V. S. Hill, A. J. McMichael, J Exp Med 1997; 186 (6): 859-865) was performed ex vivo (without further in vitro culturing for expansion) using PBMCs depleted of CD4+ and enriched for CD8+ T cells (CD8+ effectors), or depleted of CD8+ and enriched for CD4+ T cells (CD4+ effectors). Tests were performed in duplicate and with a positive and negative control, Multiscreen filter plates (Merck Millipore) pre-coated with IFNγ-specific antibodies (ELISpotPro kit, Mabtech). 267.000 Cells were used per plate. Plates were scanned using an AID Classic Robot ELISPOT Reader and analyzed by AID ELISPOT 7.0 software (AID Autoimmun Diagnostika). Antigen Peptides (except negative and positive control group) were done in duplicates, spot counts were taken as mean values of each duplicate.
The immunogenicity of each of the six peptides was analyzed by IFN-γ secretion by subject peripheral blood mononuclear cells (PBMCs) using ELIspot assay. […]
The immunogenicity of each peptide was assessed in peripheral blood mononuclear cells (PBMCs) from patients and using the IFN-γ-ELISPOT assay. ELISPOT results were considered positive if the number of spots was at least 2-fold higher than the negative control (medium) and at least 50 spots were detected. […] We also tested the effect of delivery aiding peptides (DACP-1) and peptide extension by overlapping tandemization and tandemization on the immunogenicity of the epitopes.

Row | Substance | response rate in ELIspot on addition of a DACP
1 | KLVVVGAVGVGKSALTIRQIKIWFQNRRMKWKK [SEQ-ID-No.: 18] | increase in the response rate
2 | LQEFRRFQDPGRIVAIVRQIKIWFQNRRMKWKK [SEQ-ID-No.: 20] | increase in the response rate

same assay, conditions: Table 1, HTAPPs; response in ELISPOT experiments

Row | Substance | Elispot [nspots/pM]
3 | 6 (NVGLSAVCTYNLSTAAAYCIHSINLHNFSNSVL) [compound 6] | 330,5 nspots/pM
4 | 4 (ETNFKSLFHDLFQKVEE) [compound 4] | 233,5 nspots/pM
5 | 16 (RERRVASWAMSFERL) [compound 16] | 326,5 nspots/pM
6 | 1 (KLVVVGAVGVGKSALTI) [compound 1] | 32,5 nspots/pM
7 | 2 (LANSPDLSHLAYYVTKVKEEDAF) [compound 2] | 419,5 nspots/pM
8 | 8 (KKIRKPRTIYSSLQLQAAAYGIYDALFDIESKVDPSK) [compound 8] | 351,5 nspots/pM
9 | 3 (LQEFRRFQDPGRIVAIV) [compound 3] | 246,0 nspots/pM
10 | 9 (LPVMLLIVARPVKLAAFPTSLSD) [compound 9] | 289,5 nspots/pM
11 | 14 (SPRQCSSWTLAAYKLAAFPTSL) [compound 14] | 137,5 nspots/pM
12 | 13 (LSKNLVAQISALALQLAAYGNSITGIISSVLGHIS) [compound 13] | 205 nspots/pM
13 | 11 (SPLTGGNMAF) [compound 11] | 145,5 nspots/pM
14 | 10 (LFKDLGLPARTVSTTF) [compound 10] | 143,5 nspots/pM

same assay, conditions: Table 2, HTAPP-DACP; response in ELISPOT experiments

Row | Substance | Elispot [nspots/pM]
15 | 26 (IPDEYGNTALHYAIYNEDKLMRQIKIWFQNRRMKWKK) [compound 26] | 347,5 nspots/pM
16 | 25 (RQRLALEAEKAAYEERGAAEALSVVRQIKIWFQNRRMKWKK) [compound 25] | 317,5 nspots/pM
17 | 29 (HRCATITHLLAAYYLVLNFNKKRQIKIWFQNRRMKWKK) [compound 29] | 342,5 nspots/pM
18 | 28 (SPRQCSSWTLAAYKLAAFPTSLRQIKIWFQNRRMKWKK) [compound 28] | 320,0 nspots/pM
19 | 24 (RERRVASWAMSFERLRQIKIWFQNRRMKWKK) [compound 24] | 436,0 nspots/pM
20 | 27 (LFKDLGLPARTVSTTFRQIKIWFQNRRMKWKK) [compound 27] | 196,0 nspots/pM
21 | 20 (LQEFRRFQDPGRIVAIVRQIKIWFQNRRMKWKK) [compound 20] | 500,0 nspots/pM
22 | 30 (KDYSVLYVVPGPVRFQRQIKIWFQNRRMKWKK) [compound 30] | 234,0 nspots/pM
23 | 23 (MLFSNITPKAAYSPLTGGNMAFRQIKIWFQNRRMKWKK) [compound 23] | 285,0 nspots/pM
24 | 19 (LANSPDLSHLAYYVTKVKEEDAFRQIKIWFQNRRMKWKK) [compound 19] | 430,5 nspots/pM
25 | 22 (IKPRILGFDTPHYWLCRQIKIWFQNRRMKWKK) [compound 22] | 477,0 nspots/pM
26 | 21 (ETNFKSLFHDLFQKVEERQIKIWFQNRRMKWKK) [compound 21] | 334,0 nspots/pM

same assay, conditions: Table 4, HTAPP-DACP related to group therapy

Row | Substance | Elispot [nspots/pM]
27 | 40 (HTLYGHTSTVCCMHLHEKRVRQIKIWFQNRRMKWKK) [compound 40] | 95,0 nspots/pM
28 | 50 (LLGRNSFEVCVCACPGRDRRQIKIWFQNRRMKWKK) [compound 50] | 256,7 nspots/pM
29 | 43 (IGHKVDAVFMKDGFFYFFHGTRQYRQIKIWFQNRRMKWKK) [compound 43] | 134,2 nspots/pM
30 | 46 (KLVVVGACGVGKSALTIQLIQNHRQIKIWFQNRRMKWKK) [compound 46] | 54,2 nspots/pM
31 | 42 (ICLTSTVQLIMQLMPFGCLLRQIKIWFQNRRMKWKK) [compound 42] | 20,8 nspots/pM
32 | 36 (EYKLVVVGAVGVGKSALTIQRQIKIWFQNRRMKWKK) [compound 36] | 140 nspots/pM
33 | 48 (KVKIPVAIKTSPKANKEIRQIKIWFQNRRMKWKK) [compound 48] | 39,2 nspots/pM
34 | 52 (LLGRNSFEVLVCACPGRDRRQIKIWFQNRRMKWKK) [compound 52] | 275,0 nspots/pM
35 | 47 (KLVVVGADGVGKSALTIQLIQNHRQIKIWFQNRRMKWKK) [compound 47] | 120,0 nspots/pM
36 | 33 (ATYLWWVNNQSLPVSPRAAYLLLTASLLTFWNPRQIKIWFQNRRMKWKK) [compound 33] | 271,7 nspots/pM
37 | 44 (KAISTRDPLSKITEQEKDFLWRQIKIWFQNRRMKWKK) [compound 44] | 103,3 nspots/pM
38 | 41 (HTLYGHTSTVHCMHLHEKRVRQIKIWFQNRRMKWKK) [compound 41] | 39,2 nspots/pM
39 | 49 (LLDILDTAGHEEYSAMRDQRQIKIWFQNRRMKWKK) [compound 49] | 161,7 nspots/pM
40 | 45 (KIGDFGLATEKSRWSGSHQRQIKIWFQNRRMKWKK) [compound 45] | 55,0 nspots/pM
41 | 32 (AAKALMSAFYTFRYPLSLRQIKIWFQNRRMKWKK) [compound 32] | 75,8 nspots/pM
42 | 35 (EYFMKQMNDARHGGWTTKMDRQIKIWFQNRRMKWKK) [compound 35] | 20,0 nspots/pM
43 | 34 (DSTPPPGTRVLAMAIYKQSQRQIKIWFQNRRMKWKK) [compound 34] | 35,8 nspots/pM
44 | 37 (GACRHGDRCSRLHNKPTFSRQIKIWFQNRRMKWKK) [compound 37] | 47,5 nspots/pM

same assay, conditions: Table 5, HTAPP-DACP related to group therapy

Row | Substance | Elispot [nspots/pM]
45 | 61 (QHVKITDFGRAKLLGAEEKRQIKIWFQNRRMKWKK) [compound 61] | 76,7 nspots/pM
46 | 66 (TIHYNYMCNSSCMGSMNRRPILTIRQIKIWFQNRRMKWKK) [compound 66] | 13,3 nspots/pM
47 | 55 (MTEYKLVVVGARGVGKSALRQIKIWFQNRRMKWKK) [compound 55] | 44,2 nspots/pM
48 | 65 (TEYKLVVVGAAGVGKSALTIQRQIKIWFQNRRMKWKK) [compound 65] | 22,5 nspots/pM
49 | 68 (YKLVVVGAGDVGKSALTIQLIQNHFVDRQIKIWFQNRRMKWKK) [compound 68] | 154,2 nspots/pM
50 | 60 (PSDQDLLRCHVLTSGIFETRQIKIWFQNRRMKWKK) [compound 60] | 163,3 nspots/pM
51 | 53 (MAQYLSTLLLLLATLAVALRQIKIWFQNRRMKWKK) [compound 53] | 190,8 nspots/pM
52 | 59 (PSDQDLLRCCVLTSGIFETRQIKIWFQNRRMKWKK) [compound 59] | 100,8 nspots/pM
53 | 63 (SQHMTEVVRHCPHHERCSDRQIKIWFQNRRMKWKK) [compound 63] | 88,3 nspots/pM
54 | 62 (RVCACPGRDWRTEEENLRKRQIKIWFQNRRMKWKK) [compound 62] | 279,2 nspots/pM
55 | 57 (NSSCMGGMNQRPILTIITLRQIKIWFQNRRMKWKK) [compound 57] | 102,5 nspots/pM
56 | 54 (MLPQIPFLLLVSLNLVHGVFRQIKIWFQNRRMKWKK) [compound 54] | 246,7 nspots/pM
57 | 67 (YGIPFIETSTKTRQRVEDARQIKIWFQNRRMKWKK) [compound 67] | 248,3 nspots/pM
58 | 56 (MTEYKLVVVGASGVGKSALTIQLIQNHRQIKIWFQNRRMKWKK) [compound 56] | 56,7 nspots/pM
59 | 64 (STRDPLSEITKQEKDFLWSHRQIKIWFQNRRMKWKK) [compound 64] | 80,8 nspots/pM

same assay, conditions: Table 6, further HTAPPs, HTAPP-DACPs and reference sequences

Row | Substance | Elispot [nspots/pM]
60 | 71 (QRQLNTALPQPFREAPAYSNRQIKIWFQNRRMKWKK) [compound 71] | 270,5 nspots/pM
61 | 82 (LEKLYLYFNKISKIENLEKLIKRQIKIWFQNRRMKWKK) [compound 82] | 305,0 nspots/pM
62 | 80 (NFMLNQNVMLSVKGITKNVHTRQIKIWFQNRRMKWKK) [compound 80] | 232,5 nspots/pM
63 | 77 (KKIRKPRTIYSSLQLQA) [compound 77] | 148,0 nspots/pM
64 | 79 (AIYNEDKLMAKALLLYGADIERQIKIWFQNRRMKWKK) [compound 79] | 242,5 nspots/pM
65 | 76 (PQELWHFLTQNLSLPN) [compound 76] | 470,5 nspots/pM
66 | 83 (QSYPGSASLAAYSGMPRISKLRQIKIWFQNRRMKWKK) [compound 83] | 367,5 nspots/pM
67 | 84 (PPSNATAETQPIPQKAAYLEAIFLRDWDSLYSHDLDTSADS) [compound 84] | 197,5 nspots/pM
68 | 81 (LTPKKLQCVDLHVISNDRQIKIWFQNRRMKWKK) [compound 81] | 272,5 nspots/pM
69 | 78 (GIYDALFDIESKVDPSK) [compound 78] | 134,5 nspots/pM
70 | 75 (SAANIRALNVPPSLA) [compound 75] | 196,0 nspots/pM
71 | 70 (ESGCEERGAAMIQTVDPAAHRQIKIWFQNRRMKWKK) [compound 70] | 153,5 nspots/pM
72 | 72 (MLFSNITPK) [compound 72] | 148,0 nspots/pM
73 | 69 (VAFLGCPGFAGVLQT) [compound 69] | 149,0 nspots/pM

same assay, conditions: tandem peptide in relation to the more immunogenic single HTAP (SEQ-ID-No.: 77 / 78)

Row | Substance | increase in Elispot count
74 | KKIRKPRTIYSSLQLQAAAYGIYDALFDIESKVDPSK [SEQ-ID-No.: 8] | more than 237%
